Measurements: US12410262B2, “Peptide conjugates of cytotoxins as therapeutics” (Cybrexa 2, Inc., priority 2019, dated 2025)
Like-named read-outs stand apart in the source and are kept apart here. Residues, ends and D or L forms follow the SMILES beside them. *: point of attachment. X2 = CC[C@@]1(O)C(=O)OCc2c1cc1n(c2=O)Cc2c-1nc1cc(F)c(C)c3c1c2[C@@H](NC(=O)O[C@H](C)[C@@H](C)S*)CC3; X4 = CC[C@@]1(O)C(=O)OCc2c1cc1n(c2=O)Cc2c-1nc1cc(F)c(C)c3c1c2[C@@H](NC(=O)O[C@@H](C)[C@H](C)S*)CC3; X1 = CC[C@@]1(O)C(=O)OCc2c1cc1n(c2=O)Cc2c-1nc1cc(F)c(C)c3c1c2[C@@H](NC(=O)O[C@H](C)[C@H](C)S*)CC3

Assays:
Test in all cases: cells
[1] = system: HCT116; type: cell-based, human
How it was run: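 DLD-1 WT (2500/well), FaDu and HeLa (5000/well) and HCT116 (3000/well) were grown in 10% FBS media and dosed in triplicate 24 h after plating. After 96 h of drug exposure at 37 °C, cells were fixed, Hoechst-stained and counted by imaging; percent growth delay was calculated versus untreated controls.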

[2] = system: DLD-1 WT cells; type: cell-based
Experimental: (§1) Cells were plated in 96 well black walled-clear bottom plates (Griener), DLD-1 WT cells at 2500 cells per well, FaDu, and HeLa cells at 5000 cells per well, and HCT116 at 3000 cells per well, in growth media containing 10% FBS. Cells were allowed to adhere at room temperature for 60 minutes before returning to a 37 C, 5% CO2 incubator. After 24 hours, media was removed and replaced with fresh growth media containing various drug concentrations. Each drug concentration was added in triplicate. Non-drug treated controls contained growth media only. Cells were returned to the incubator. Ninety-six hours after addition of drug, cells were fixed with 4% paraformaldehyde for 20 minutes and stained with Hoechst at 1 ug/mL. The plates were imaged on a Cytation 5 auto imager (BioTek) and cells were counted using CellProfiler (http://cellprofiler.org). The percent cell growth delay was calculated and data plotted using GraphPad Prism

[3] = system: HeLa cells; type: cell-based
Experimental: as §1

[4] = system: FaDu; type: cell-based
Experimental: as §1

IC50 ([1]; Homo sapiens, HCT-116, HCT116 cells, 96 h after addition of drug, read-out: HCT116 (IC50)) [nM]	IC50 ([2]; Homo sapiens, DLD-1 WT cells, 96 h after addition of drug, IC = incomplete curve, read-out: DLD-1 (IC50)) [nM]	IC50 ([3]; Homo sapiens, HeLa cells, 96 h after addition of drug, read-out: HeLa (IC50)) [nM]	IC50 ([4]; Homo sapiens, FaDu cells, 96 h after addition of drug, read-out: FaDu (IC50)) [nM]	SMILES	IC50 ([1]; 96 h) [nM]	IC50 ([2]; 96 h) [nM]	IC50 ([3]; 96 h) [nM]	IC50 ([4]; 96 h) [nM]
				CC[C@H](C)[C@H](NC(=O)[C@@H]1CCCN1C(=O)[C@H](CC(N)=O)NC(=O)[C@H](CCC(N)=O)NC(=O)[C@H](CCC(=O)O)NC(=O)[C@H](C)N)C(=O)N[C@@H](Cc1ccc(O)cc1)C(=O)N[C@@H](Cc1c[nH]c2ccccc12)C(=O)N[C@@H](C)C(=O)N[C@@H](CCCNC(=N)N)C(=O)N[C@@H](Cc1ccc(O)cc1)C(=O)N[C@@H](C)C(=O)N[C@@H](CC(=O)O)C(=O)N[C@@H](Cc1c[nH]c2ccccc12)C(=O)N[C@@H](CC(C)C)C(=O)N[C@@H](Cc1ccccc1)C(=O)N[C@H](C(=O)N[C@H](C(=O)N1CCC[C@H]1C(=O)N[C@@H](CC(C)C)C(=O)N[C@@H](CC(C)C)C(=O)N[C@@H](CC(C)C)C(=O)N[C@@H](CC(C)C)C(=O)N[C@@H](CC(=O)O)C(=O)N[C@@H](CC(C)C)C(=O)N[C@@H](C)C(=O)N[C@@H](CC(C)C)C(=O)N[C@@H](CC(C)C)C(=O)N[C@H](C(=O)N[C@@H](CC(=O)O)C(=O)N[C@@H](C)C(=O)N[C@@H](CC(=O)O)C(=O)N[C@@H](CCC(=O)O)C(=O)N[C@@H](CSS[C@H](C)[C@@H](C)OC(=O)N[C@H]1CCc2c(C)c(F)cc3nc4c(c1c23)Cn1c-4cc2c(c1=O)COC(=O)[C@]2(O)CC)C(=O)NCC(=O)O)C(C)C)[C@@H](C)O)[C@@H](C)O [Compound 4] (H-AEQNPIYWARYADWLFTTPLLLLDLALLVDADEC(X2)G-OH; N-terminus and C-terminus assumed)	0.1	0.8	0.07	0.06
0.05	0.13	0.12	0.04	CC[C@@]1(O)C(=O)OCc2c1cc1n(c2=O)Cc2c-1nc1cc(F)c(C)c3c1c2[C@@H](N)CC3 [R^8H-5, (10S,23S)-23-amino-10-ethyl-18-fluoro-10-hydroxy-19-methyl-8-oxa-4,15-diazahexacyclo[14.7.1.02,14.04,13.06,11.020,24]tetracosa-1,6(11),12,14,16(24),17,19-heptaene-5,9-dione; methanesulfonic acid, reference compound]				
				CC[C@H](C)[C@H](NC(=O)[C@@H]1CCCN1C(=O)[C@H](CC(N)=O)NC(=O)[C@H](CCC(N)=O)NC(=O)[C@H](CCC(=O)O)NC(=O)[C@H](C)N)C(=O)N[C@@H](Cc1ccc(O)cc1)C(=O)N[C@@H](Cc1c[nH]c2ccccc12)C(=O)N[C@@H](C)C(=O)N[C@@H](CCCNC(=N)N)C(=O)N[C@@H](Cc1ccc(O)cc1)C(=O)N[C@@H](C)C(=O)N[C@@H](CC(=O)O)C(=O)N[C@@H](Cc1c[nH]c2ccccc12)C(=O)N[C@@H](CC(C)C)C(=O)N[C@@H](Cc1ccccc1)C(=O)N[C@H](C(=O)N[C@H](C(=O)N1CCC[C@H]1C(=O)N[C@@H](CC(C)C)C(=O)N[C@@H](CC(C)C)C(=O)N[C@@H](CC(C)C)C(=O)N[C@@H](CC(C)C)C(=O)N[C@@H](CC(=O)O)C(=O)N[C@@H](CC(C)C)C(=O)N[C@@H](C)C(=O)N[C@@H](CC(C)C)C(=O)N[C@@H](CC(C)C)C(=O)N[C@H](C(=O)N[C@@H](CC(=O)O)C(=O)N[C@@H](C)C(=O)N[C@@H](CC(=O)O)C(=O)N[C@@H](CCC(=O)O)C(=O)N[C@@H](CSS[C@@H](C)[C@H](C)OC(=O)N[C@H]1CCc2c(C)c(F)cc3nc4c(c1c23)Cn1c-4cc2c(c1=O)COC(=O)[C@]2(O)CC)C(=O)NCC(=O)O)C(C)C)[C@@H](C)O)[C@@H](C)O [Compound 5] (H-AEQNPIYWARYADWLFTTPLLLLDLALLVDADEC(X4)G-OH; N-terminus and C-terminus assumed)	0.12	0.83	0.07	0.06
				CC[C@H](C)[C@H](NC(=O)[C@@H]1CCCN1C(=O)[C@H](CC(N)=O)NC(=O)[C@H](CCC(N)=O)NC(=O)[C@H](CCC(=O)O)NC(=O)[C@H](C)N)C(=O)N[C@@H](Cc1ccc(O)cc1)C(=O)N[C@@H](Cc1c[nH]c2ccccc12)C(=O)N[C@@H](C)C(=O)N[C@@H](CCCNC(=N)N)C(=O)N[C@@H](Cc1ccc(O)cc1)C(=O)N[C@@H](C)C(=O)N[C@@H](CC(=O)O)C(=O)N[C@@H](Cc1c[nH]c2ccccc12)C(=O)N[C@@H](CC(C)C)C(=O)N[C@@H](Cc1ccccc1)C(=O)N[C@H](C(=O)N[C@H](C(=O)N1CCC[C@H]1C(=O)N[C@@H](CC(C)C)C(=O)N[C@@H](CC(C)C)C(=O)N[C@@H](CC(C)C)C(=O)N[C@@H](CC(C)C)C(=O)N[C@@H](CC(=O)O)C(=O)N[C@@H](CC(C)C)C(=O)N[C@@H](C)C(=O)N[C@@H](CC(C)C)C(=O)N[C@@H](CC(C)C)C(=O)N[C@H](C(=O)N[C@@H](CC(=O)O)C(=O)N[C@@H](C)C(=O)N[C@@H](CC(=O)O)C(=O)N[C@@H](CCC(=O)O)C(=O)N[C@@H](CSS[C@@H](C)[C@@H](C)OC(=O)N[C@H]1CCc2c(C)c(F)cc3nc4c(c1c23)Cn1c-4cc2c(c1=O)COC(=O)[C@]2(O)CC)C(=O)NCC(=O)O)C(C)C)[C@@H](C)O)[C@@H](C)O [Compound 6] (H-AEQNPIYWARYADWLFTTPLLLLDLALLVDADEC(X1)G-OH; N-terminus and C-terminus assumed)	1	13.9	0.62	0.76
